Counter-ions that a name gives are not always drawn. Like-named read-outs stand apart in the source and are kept apart here. Each block holds one molecule with its values, some of them ahead of it.
What was measured:
alpha 2 receptor [1] = experiment: Radioligand binding, [3H]rauwolscine, rat cerebral cortices; details: Ki alpha 1/Ki alpha-2
Description: (§1) The compounds were assessed for alpha-adrenergic receptor subtype selectivity by use of radioligand binding techniques as described previously (DeBernardis et. al. J. Med. Chem. 28, 1398 (1985)).

alpha 2 receptor [2] = biological target: T1, alpha 2 receptor (Rattus norvegicus, UniProt P22909); experiment: as above; details: read-out: Ki alpha-2
T1 construct: rat cerebral cortices; from tissue; host or cells: rat cerebral cortices
T1 sequence (P22909 1-465): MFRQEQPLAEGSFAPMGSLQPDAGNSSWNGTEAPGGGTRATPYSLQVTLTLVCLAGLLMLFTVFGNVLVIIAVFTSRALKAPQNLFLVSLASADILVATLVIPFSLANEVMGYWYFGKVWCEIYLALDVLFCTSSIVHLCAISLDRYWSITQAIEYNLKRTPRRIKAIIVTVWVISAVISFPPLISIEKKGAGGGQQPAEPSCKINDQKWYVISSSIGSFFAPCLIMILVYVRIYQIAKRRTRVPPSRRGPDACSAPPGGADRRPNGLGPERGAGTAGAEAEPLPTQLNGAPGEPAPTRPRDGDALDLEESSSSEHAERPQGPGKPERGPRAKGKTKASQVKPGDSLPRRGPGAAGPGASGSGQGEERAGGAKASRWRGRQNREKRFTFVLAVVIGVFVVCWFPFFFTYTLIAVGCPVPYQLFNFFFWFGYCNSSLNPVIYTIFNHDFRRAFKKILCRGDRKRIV
Description: as §1

serotonin uptake = experiment: Uptake inhibition, tritiated serotonin, rat brain synaptosomes; type: biochemical, Sprague-Dawley derived rats; details: 0.1 μM tritiated amine, 37° C., 4 minutes, read-out: Biogenic Amine Uptake Inhibition IC50 Serotonin
Source text: (§2) Sprague-Dawley derived rats of either sex, weighing about 180-250 g, were killed by decapitation. The brains were immediately removed, placed on a glass plate chilled over crushed ice and dissected according to a modification of the method of Glowinski and Iversen (J. Neurochem. 13, 655-669, 1966). First, the rhombencephalon was separated by transverse section and discarded. The remaining tissue was bisected by a midline sagittal cut. The hypothalamus was removed using the anterior and posterior reference points, respectively. The hippocampus was peeled away and discarded and the striata were exposed and removed. Frontal cortical tissue was dissected from remaining brain structures. […]
(§3) Uptake studies were conducted according to the method of Synder and Coyle (J. Pharmacol. Exp. Ther. 165, 78-86, 1969) with minor modifications. Usually a 0.1 ml aliquot of the synaptosomal preparation was incubated in a mixture of 0.75 ml of modified Krebs-Ringer buffer, 0.05 ml of the drug being evaluated for uptake inhibition, and 0.1 ml of a 1 μM tritiated amine (norepinephrine, serotonin or dopamine) solution (final concentration 0.1 μM) for a total volume of 1 ml. […] All samples were cold and dark adapted and counted in a Tri-Carb® (Packard) Model 460 Liquid Scintillation Spectrometer. Corrections were automatically made for quenching by the external standard method and for luminescence. […]

norepinephrine uptake = experiment: Uptake inhibition, tritiated norepinephrine, rat brain synaptosomes; type: biochemical, Sprague-Dawley derived rats; details: 0.1 μM tritiated amine, 37° C., 4 minutes, read-out: Biogenic Amine Uptake Inhibition IC50 Norephinephrine
Source text: as §2, §3

dopamine uptake = experiment: Uptake inhibition, tritiated dopamine, rat brain synaptosomes; type: biochemical, Sprague-Dawley derived rats; details: 0.1 μM tritiated amine, 37° C., 4 minutes, read-out: Biogenic Amine Uptake Inhibition IC50 Dopamine
Source text: as §2, §3

alpha 1 receptor = biological target: T2, alpha 1 receptor (Rattus norvegicus, UniProt P15823); experiment: Radioligand binding, [3H]-prazosin, rat liver homogenates
T2 construct: rat liver homogenates; from tissue; host or cells: rat liver homogenates
T2 sequence (P15823 1-515): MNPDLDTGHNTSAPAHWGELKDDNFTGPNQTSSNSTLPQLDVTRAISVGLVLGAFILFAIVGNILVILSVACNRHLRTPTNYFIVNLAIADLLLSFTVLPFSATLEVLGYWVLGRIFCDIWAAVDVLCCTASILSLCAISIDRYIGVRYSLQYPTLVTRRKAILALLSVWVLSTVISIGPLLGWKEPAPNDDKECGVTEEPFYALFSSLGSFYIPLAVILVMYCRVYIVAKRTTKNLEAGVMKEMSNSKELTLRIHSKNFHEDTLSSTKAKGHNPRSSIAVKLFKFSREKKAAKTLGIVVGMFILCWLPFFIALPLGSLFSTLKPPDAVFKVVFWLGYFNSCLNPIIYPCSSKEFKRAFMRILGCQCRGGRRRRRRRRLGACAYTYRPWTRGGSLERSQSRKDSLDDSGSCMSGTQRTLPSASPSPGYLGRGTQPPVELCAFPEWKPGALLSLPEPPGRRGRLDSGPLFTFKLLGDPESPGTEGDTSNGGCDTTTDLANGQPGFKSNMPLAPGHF
Description: as §1

[3] = rat cerebral cortices, [3H]rauwolscine

SMILES: COc1ccc2c(c1)CCCC2CN1CCC(c2ccccc2)C1 (stereo not shown) [Example 121, 6-Methoxy-1-(3-phenylpyrrolidino-1-methyl) tetralin hydrochloride]
alpha-2 - Selectivity Ki alpha 1/Ki alpha-2 (alpha 2 receptor [1]): 95
Ki (alpha 2 receptor [2]): 1 nM

SMILES: c1ccc(C2CCN(CC3CCCc4c3ccc3c4OCO3)C2)cc1 (stereo not shown) [Example 143a, 5,6-Methylenedioxy-1-(3-phenylpyrrolidino-1-methyl) tetralin methanesulfonate]
alpha-2 - Selectivity Ki alpha 1/Ki alpha-2 (alpha 2 receptor [1]): 43
Ki (alpha 2 receptor [2]): 1.2 nM

SMILES: COc1cccc2c1CCCC2CN1CCC(c2cccs2)C1 (stereo not shown) [Example 146, 5-Methoxy-1-(3-(2-thienyl)pyrrolidino-1-methyl) tetralin hydrochloride]
alpha-2 - Selectivity Ki alpha 1/Ki alpha-2 (alpha 2 receptor [1]): 35
Ki (alpha 2 receptor [2]): 4.9 nM

SMILES: COc1ccc(C)c2c1CCCC2CN(C)CCc1cccs1 (stereo not shown) [Example 36, 1-((N-Methylamino)methyl-N-(2-(2-thienyl)ethyl))-5-methoxy-8-methyl tetralin hydrochloride]
alpha-2 - Selectivity Ki alpha 1/Ki alpha-2 (alpha 2 receptor [1]): 95
Ki (alpha 2 receptor [2]): 6.9 nM

SMILES: Fc1cc2c(c3c1C(CN1CCC(c4ccccc4)C1)CCC3)OCO2 (stereo not shown) [Example 160, 8-Fluoro-5,6-methylenedioxy-1-(3-phenylpyrrolidino-1-methyl) tetralin hydrochloride]
IC50 (serotonin uptake): 1840 nM
IC50 (norepinephrine uptake): 991 nM
IC50 (dopamine uptake): 2930 nM

SMILES: CCOc1ccc2c(c1)CCCC2CN(C)CCc1cccc(N)c1 (stereo not shown) [Example 69, 1-((N-Methylamino)methyl-N-(2-(m-aminophenyl)ethyl))-6-ethoxy tetralin dihydrochloride]
alpha-2 - Selectivity Ki alpha 1/Ki alpha-2 (alpha 2 receptor [1]): 98
Ki (alpha 2 receptor [2]): 13 nM

Continued, values first:

alpha-2 - Selectivity Ki alpha 1/Ki alpha-2 (alpha 2 receptor [1]): 93
Ki (alpha 2 receptor [2]): 1.3 nM
SMILES: CN(c1ccc2c(c1)CCCC2CN1CCC(c2ccccc2)C1)S(C)(=O)=O (stereo not shown) [Example 193, 6-(N-methylmethylsulfonamido)-1-(3-phenylpyrrolidino-1-methyl)tetralin hydrochloride]

alpha-2 - Selectivity Ki alpha 1/Ki alpha-2 (alpha 2 receptor [1]): 45
Ki (alpha 2 receptor [2]; [3]): 4.9 nM
SMILES: Fc1ccc2c(c1)CCCC2CN1CCC(c2cccs2)C1 (stereo not shown) [Example 149, 6-Fluoro-1-(3-(2-thienyl)pyrrolidino-1-methyl) tetralin methanesulfonate]

alpha-2 - Selectivity Ki alpha 1/Ki alpha-2 (alpha 2 receptor [1]): 21
Ki (alpha 2 receptor [2]): 6 nM
SMILES: Nc1ccc2c(c1)CCCC2CN1CCC(c2ccccc2)C1 (stereo not shown) [Example 156, 6-Amino-1-(3-phenylpyrrolidino-1-methyl) tetralin dihydrochloride]

alpha-2 - Selectivity Ki alpha 1/Ki alpha-2 (alpha 2 receptor [1]): 7
Ki (alpha 2 receptor [2]): 8.6 nM
SMILES: COc1ccc2c(c1)CCC2CN1CCC(c2cccc(F)c2)C1 (stereo not shown) [Example 153, 5-Methoxy-1-(3-(m-fluorophenyl)pyrrolidino-1-methyl) indane hydrochloride]

alpha-2 - Selectivity Ki alpha 1/Ki alpha-2 (alpha 2 receptor [1]): 85
Ki (alpha 2 receptor [2]): 4.2 nM
SMILES: CN(CCc1cccc(F)c1)CC1CCCc2c1ccc1c2OCCO1 (stereo not shown) [Example 167, 1-((N-Methylamino)methyl-N-(2-m-fluorophenethyl))-5,6-ethylenedioxy tetralin methanesulfonate]

alpha-2 - Selectivity Ki alpha 1/Ki alpha-2 (alpha 2 receptor [1]): 71
Ki (alpha 2 receptor [2]): 2.5 nM
SMILES: COc1ccc2c(c1)CCC2CN1CCC(c2cccs2)C1 (stereo not shown) [Example 151, 5-Methoxy-1-(3-(2-thienyl)pyrrolidino-1-methyl) indane hydrochloride]

alpha-2 - Selectivity Ki alpha 1/Ki alpha-2 (alpha 2 receptor [1]): 11
Ki (alpha 2 receptor [2]; [3]): 4.8 nM
Ki (alpha 1 receptor): 51 nM
SMILES: COc1ccc2c(c1)CCC2CN1CCC(c2ccccc2)C1 (stereo not shown) [Example 152, 5-Methoxy-1-(3-phenylpyrrolidino-1-methyl) indane hydrochloride]

Source: patent US5128362A, “1-aminomethyl-1,2,3,4-tetrahydronaphthalenes” (Abbott Laboratories, priority 1990, dated 1992)
